Experimental data published in patent publication US20240409530A1, “Disubstituted Pyrimidine Compounds for Ketohexokinase Inhibition” (Centennial Therapeutics, LLC, priority 2023, published 2024).

How the values were obtained:
[1] = molecular target: Human recombinant KHK-A (Homo sapiens (Human), UniProt P50053); experiment: KHK inhibition assay, recombinant isozyme (coupled pyruvate kinase/LDH, NADH absorbance 340 nm); format: biochemical; settings: recombinant isozyme 6 nM, fructose 2 mM, ATP 0.1 mM
Method: (§1) Determination of Human and Rat recombinant KHK-A and KHK-C isozyme IC50 Values
(§2) An assay reagent cocktail was prepared by combining NADH, water, TEA, KCl, MgCl2, PEP, ATP, DTT, coupling enzymes (pyruvate kinase and lactate dehydrogenase, LDH) to final concentrations as shown in Table B.
(§3) To this was added the relevant KHK isozyme to a final concentration of 6 nM. Aliquots of each inhibitor compound were diluted via 5-fold serial dilutions to produce final concentrations ranging from 1000 nM to 0.064 nM. The inhibitor aliquots were added to the assay reagent cocktail containing KHK with fructose (at a concentration of 2 mM) in a 96-well plate. The absorbance at 340 nm was measured via spectrophotometry and inhibition was analyzed using non-linear regression.

[2] = molecular target: Human recombinant KHK-C (Homo sapiens (Human), UniProt P50053); experiment: as above; format: biochemical; settings: recombinant isozyme 6 nM, fructose 2 mM, ATP 0.1 mM
Method: as §1, §2, §3

[3] = molecular target: Rat recombinant KHK-A (Rattus norvegicus (Rat), UniProt Q02974); experiment: as above; format: biochemical; settings: recombinant isozyme 6 nM, fructose 2 mM, ATP 0.1 mM
Method: as §1, §2, §3

[4] = molecular target: Rat recombinant KHK-C (Rattus norvegicus (Rat), UniProt Q02974); experiment: as above; format: biochemical; settings: recombinant isozyme 6 nM, fructose 2 mM, ATP 0.1 mM
Method: as §1, §2, §3

[5] = molecular target: human KHK in HepG2 Cells (Homo sapiens (Human), UniProt P50053); experiment: Cell-based potency assay (HepG2 assay), F1P by LC/MS; settings: fructose 20 mM, 20 min, F1P produced
Method: Testing inhibition effect of compounds against human KHK in HepG2 Cells
(§4) HepG2 cells were grown in RPMI1640 supplemented media on 100 mm plates to near confluency (about 5-8×10^6 cells). The growth media was aspirated and 4 mL trypsin solution (0.25% (w/v)+0.25% (w/v) EDTA) was added, followed by incubation at 37° C. for 5-10 mins. The cells were pelleted and resuspended in 2 mL complete media.
The cells were then placed in a 96 well plate at 20,000-50,000 cells per well and grown for 20-28 hours at 37° C. to allow adherence.
Inhibitor compounds were diluted in DMSO to 50 μM, then serially diluted with MEM media (ThermoFisher). Final inhibitor concentration ranged from 1000 nM to 0.064 nM (5-fold dilution series).
The RPMI medium was removed from the plate of confluent cells. The plate was then incubated for 35 min at 37°, after which were added 0.1 mL of the diluted inhibitor compounds in MEM with fructose, 0.1 mL of MEM media without inhibitor compound or fructose, or trypsin; yielding a final concentration of fructose at 20 mM. The plate was subsequently incubated for 20 min at 37°, then placed on ice to stop the reactions.
Next, 200 μL of cold 80% (v/v) methanol:water was added to all wells, except the controls used to enumerate cell count. The plate was vortexed and cell debris removed by centrifugation. To measure F1P produced, the resulting supernatant fraction was analyzed by LC/MS.

[6] = molecular target: human KHK-C in engineered HepG2 cells (Homo sapiens (Human), UniProt P50053); experiment: Cell-based potency assay (KHK-C-overexpressing HepG2 assay), F1P by LC/MS; settings: fructose 30 mM, 5 min, F1P produced, geomean
Method: Testing inhibition effect of compounds against human KHK-C in engineered HepG2 cells.
Engineered HepG2 cells were generated using methods known to those of skill in the art. Briefly, HepG2 cells were incubated with lentivirus carrying a transgene encoding human KHK-C, and grown under antibiotic selection.
as §4, with “KHK-C-overexpressing HepG2” for “HepG2”, “T-182 cm^2 flask” for “100 mm plates”, “25-40×10^6” for “5-8×10^6”, “aspirated, the flask was washed with 10 mL PBS,” for “aspirated”, “3-5” for “5-10”
The cells were then placed in a 96-well plate at 20,000-40,000 cells per well and grown for 20-28 hours at 37° C. to allow adherence.
Inhibitor compounds were diluted in DMSO to 50 μM, then serially diluted with MEM media (ThermoFisher). Final inhibitor concentration ranged from 5000 nM to 0.32 nM.
The RPMI medium was removed from the plate of confluent cells. The plate was then incubated for 35 min at 37° C. with 0.1 mL of the diluted inhibitor compounds in MEM. After, an additional 0.1 mL of the diluted inhibitor compounds in MEM with fructose, or 0.1 mL of MEM media without inhibitor compound and/or fructose; yielding a final concentration of fructose at 30 mM was added. The plate was subsequently incubated for 5 min at 37° C., then placed on ice to stop the reactions.
Next 200 μL of cold 80% (v/v) methanol:water was added to al wells and placed in the −80° C. freezer for 1 hour with an adhesive seal. The plate was vortexed and cell debris removed by centrifugation. To measure F1P produced, the resulting supernatant fraction was analyzed by LC/MS.

Chain of human KHK-C in engineered HepG2 cells (P50053 whole entry, stated change not applied): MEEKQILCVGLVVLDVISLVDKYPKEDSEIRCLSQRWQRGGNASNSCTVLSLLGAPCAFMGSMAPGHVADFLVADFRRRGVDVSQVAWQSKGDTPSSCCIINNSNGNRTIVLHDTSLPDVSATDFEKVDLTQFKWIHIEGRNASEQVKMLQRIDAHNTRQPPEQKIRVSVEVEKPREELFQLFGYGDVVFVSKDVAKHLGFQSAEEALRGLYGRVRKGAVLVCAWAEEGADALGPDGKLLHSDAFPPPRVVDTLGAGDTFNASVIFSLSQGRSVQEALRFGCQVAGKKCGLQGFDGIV
Chain of Human recombinant KHK-C (P50053 whole entry): as the sequence (P50053 whole entry, stated change not applied) above
Chain of human KHK in HepG2 Cells (P50053 whole entry): as the sequence (P50053 whole entry, stated change not applied) above
Chain of Human recombinant KHK-A (P50053 other isoform, or with tags, fused parts or gaps): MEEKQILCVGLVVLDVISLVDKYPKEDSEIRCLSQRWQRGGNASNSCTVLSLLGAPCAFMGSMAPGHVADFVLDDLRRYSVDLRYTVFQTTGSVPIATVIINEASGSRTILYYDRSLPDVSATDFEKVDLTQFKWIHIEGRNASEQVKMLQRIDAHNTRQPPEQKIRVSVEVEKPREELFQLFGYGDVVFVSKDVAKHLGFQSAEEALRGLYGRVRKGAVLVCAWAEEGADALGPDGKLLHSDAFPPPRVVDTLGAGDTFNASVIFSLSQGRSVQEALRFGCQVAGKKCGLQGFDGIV
Chain of Rat recombinant KHK-A (Q02974 other isoform, or with tags, fused parts or gaps): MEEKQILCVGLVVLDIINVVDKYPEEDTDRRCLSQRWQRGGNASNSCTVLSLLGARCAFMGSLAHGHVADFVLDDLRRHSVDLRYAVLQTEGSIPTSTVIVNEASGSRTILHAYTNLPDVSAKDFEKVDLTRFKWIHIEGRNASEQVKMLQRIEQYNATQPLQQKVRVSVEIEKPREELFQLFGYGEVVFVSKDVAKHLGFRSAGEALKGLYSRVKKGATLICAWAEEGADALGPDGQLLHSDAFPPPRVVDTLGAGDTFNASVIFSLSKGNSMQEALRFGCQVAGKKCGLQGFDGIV
Chain of Rat recombinant KHK-C (Q02974 whole entry): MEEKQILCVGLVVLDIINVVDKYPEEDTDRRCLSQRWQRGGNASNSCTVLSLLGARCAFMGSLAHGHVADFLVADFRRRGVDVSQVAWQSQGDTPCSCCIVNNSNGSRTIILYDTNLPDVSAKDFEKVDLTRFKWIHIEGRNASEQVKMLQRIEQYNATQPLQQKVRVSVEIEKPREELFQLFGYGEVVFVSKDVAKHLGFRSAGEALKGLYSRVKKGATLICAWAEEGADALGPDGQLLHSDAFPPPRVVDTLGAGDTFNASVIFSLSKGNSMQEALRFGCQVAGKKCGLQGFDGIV

IC50 [1] [nM] | IC50 [2] [nM] | IC50 [3] [nM] | IC50 [4] [nM] | IC50 [5] [nM] | IC50 [6] [nM] | SMILES
160 | 231 | 46 | 120 | 332 |  | C[C@H]1CCN1c1nc(-c2cnn(CC(=O)N3CCNCC3)c2)cc(C(F)F)n1 [Compound A7, 2-(4-{2-[(S)-2-methyl-1-azetidinyl]-6-(difluoromethyl)-4-pyrimidinyl}-1-pyrazolyl)-1-(1-piperazinyl)-1-ethanone]
13.5 | 31 | 9 | 26 | 48 |  | O=C(Cn1cc(-c2cc(C(F)(F)F)nc(N3CC[C@@H]3C(F)(F)F)n2)cn1)N1CCNCC1 [Compound A2, 2-(4-{2-[(R)-2-(trifluoromethyl)-1-azetidinyl]-6-(trifluoromethyl)-4-pyrimidinyl}-1-pyrazolyl)-1-(1-piperazinyl)-1-ethanone]
31 | 14.7 | 5.2 | 17 | 28 |  | Cc1c(-c2cnn(CC(=O)N3CCNCC3)c2)nc(N2CC[C@@H]2C)nc1C(F)F [Compound A24, 2-(4-{2-[(S)-2-methyl-1-azetidinyl]-6-(difluoromethyl)-5-methyl-4-pyrimidinyl}-1-pyrazolyl)-1-(1-piperazinyl)-1-ethanone]
8.8 | 15.7 | 2.3 | 11 | 70 |  | CCc1c(-c2cnn(CC(=O)N3CCNCC3)c2)nc(N2CC[C@@H]2C)nc1C(F)(F)F [Compound A6, 2-(4-{2-[(S)-2-methyl-1-azetidinyl]-5-ethyl-6-(trifluoromethyl)-4-pyrimidinyl}-1-pyrazolyl)-1-(1-piperazinyl)-1-ethanone]
 |  |  |  | 91 | 457 | C[C@H]1CCN1c1nc(-c2cnn(CC(=O)N3CCNCC3)c2)cc(C(F)(F)F)n1 [Compound C2, reference compound]
65 | 90.9 | 23 | 86 |  |  | O=C(Cn1cc(-c2cc(C(F)(F)F)nc(N3CC[C@@H]3C(F)F)n2)cn1)N1CCNCC1 [Compound A33, 2-(4-{2-[(R)-2-(difluoromethyl)-1-azetidinyl]-6-(trifluoromethyl)-4-pyrimidinyl}-1-pyrazolyl)-1-(1-piperazinyl)-1-ethanone]

The next lines start with the compound.

SMILES | IC50 [1] [nM] | IC50 [2] [nM] | IC50 [3] [nM] | IC50 [4] [nM] | IC50 [5] [nM] | IC50 [6] [nM]
Cc1c(-c2cnn(CC(=O)N3CCNCC3)c2)nc(N2CC[C@@H]2C(F)F)nc1C(F)F [Compound A42, 2-(4-{2-[(R)-2-(difluoromethyl)-1-azetidinyl]-6-(difluoromethyl)-5-methyl-4-pyrimidinyl}-1-pyrazolyl)-1-(1-piperazinyl)-1-ethanone] | 13 | 18.3 | 10 | 26 | 43 | 
Cc1c(-c2cnn(C3CNC3)c2)nc(N2C[C@@H](O)[C@@H]2C)nc1C(F)F [Compound A35, (2S,3R)-1-{4-[1-(3-azetidinyl)-4-pyrazolyl]-6-(difluoromethyl)-5-methyl-2-pyrimidinyl}-2-methyl-3-azetidinol] | 1.9 | 4.85 | 4.1 | 7.7 | 9 | 82
COc1c(-c2cnn(C3CN(C)C3)c2)nc(N2C[C@@H](O)[C@@H]2C)nc1C(F)F [Compound A19, (2S,3R)-1-{6-(difluoromethyl)-5-methoxy-4-[1-(1-methyl-3-azetidinyl)-4-pyrazolyl]-2-pyrimidinyl}-2-methyl-3-azetidinol] | 27 | 10.6 | 6.6 | 17 | 23 | 
Cc1c(-c2cnn(CC(=O)N3CCNCC3)c2)nc(N2CC[C@@H]2C(F)(F)F)nc1C(F)F [Compound A18, 2-(4-{2-[(R)-2-(trifluoromethyl)-1-azetidinyl]-6-(difluoromethyl)-5-methyl-4-pyrimidinyl}-1-pyrazolyl)-1-(1-piperazinyl)-1-ethanone] | 5.3 | 7.42 | 4.1 | 9.5 | 11 | 
C[C@H]1[C@H](O)CN1c1nc(-c2cnn(C3CN(C)C3)c2)c(F)c(C(F)(F)F)n1 [Compound A27, (2S,3R)-1-{5-fluoro-4-[1-(1-methyl-3-azetidinyl)-4-pyrazolyl]-6-(trifluoromethyl)-2-pyrimidinyl}-2-methyl-3-azetidinol] |  | 4.09 |  |  | 9 | 
C[C@H]1[C@H](O)CN1c1nc(-c2cnn(C3CN(C)C3)c2)cc(C(F)(F)F)n1 [Compound C3, reference compound] |  |  |  |  | 4 | 191
O=C(Cn1cc(-c2nc(N3CC[C@@H]3C(F)F)nc(C(F)(F)F)c2Cl)cn1)N1CCNCC1 [Compound A38, 2-(4-{2-[(R)-2-(difluoromethyl)-1-azetidinyl]-5-chloro-6-(trifluoromethyl)-4-pyrimidinyl}-1-pyrazolyl)-1-(1-piperazinyl)-1-ethanone] | 6.5 | 3.64 | 7.3 | 14 | 36 | 
Cc1c(-c2cnn(CC(=O)N3CCNCC3)c2)nc(N2CC[C@@H]2C(F)(F)F)nc1C(F)(F)F [Compound A1, 2-(4-{2-[(R)-2-(trifluoromethyl)-1-azetidinyl]-5-methyl-6-(trifluoromethyl)-4-pyrimidinyl}-1-pyrazolyl)-1-(1-piperazinyl)-1-ethanone] | 6 | 4.06 | 2.2 | 9 | 7 | 
C[C@H]1[C@H](O)CN1c1nc(-c2cnn(C3CN(C)C3)c2)cc(C(F)F)n1 [Compound A9, (2S,3R)-1-{6-(difluoromethyl)-4-[1-(1-methyl-3-azetidinyl)-4-pyrazolyl]-2-pyrimidinyl}-2-methyl-3-azetidinol] | 22 | 40.5 | 10 | 37 |  | 184
Cc1c(-c2cnn(CC(=O)N3CCNCC3)c2)nc(N2CC[C@@H]2C(F)F)nc1C(F)(F)F [Compound A43, 2-(4-{2-[(R)-2-(difluoromethyl)-1-azetidinyl]-5-methyl-6-(trifluoromethyl)-4-pyrimidinyl}-1-pyrazolyl)-1-(1-piperazinyl)-1-ethanone] | 4.5 | 8.03 | 6.8 | 12 | 23 | 
CCc1c(-c2cnn(C3CN(C)C3)c2)nc(N2C[C@@H](O)[C@@H]2C)nc1C(F)(F)F [Compound A11, (2S,3R)-1-{5-ethyl-4-[1-(1-methyl-3-azetidinyl)-4-pyrazolyl]-6-(trifluoromethyl)-2-pyrimidinyl}-2-methyl-3-azetidinol] | 8.5 | 2.09 | 0.96 | 2.1 | 4 | 
